According to ChEMBL document CHEMBL6177921, “Enhancing the antimycobacterial efficacy of pyridine-4-carbohydrazide: linkage to additional antimicrobial agents via oxocarboxylic acids” (RSC Med Chem, 2025):
In brackets after ≈: the same amount, converted by molar mass.

Key:
Format in all cases: functional
[1] = tested on: Mycobacterium tuberculosis; test: Antimycobacterial activity against STM/INH/EMB/RIF/CLO-resistant Mycobacterium tuberculosis clinical isolate Praha 1 assessed as bacterial growth inhibition incubated for 14 days by two-fold serial dilution method; details: Praha 1, 336 h, time 14 day
[2] = tested on: Mycobacterium tuberculosis; test: Antimycobacterial activity against STM/INH/EMB/RIF/CLO-resistant Mycobacterium tuberculosis clinical isolate Praha 1 assessed as bacterial growth inhibition incubated for 21 days by two-fold serial dilution method; details: Praha 1, 504 h, time 21 day
[3] = tested on: Mycobacterium tuberculosis; test: Antimycobacterial activity against STM/INH/EMB/RIF/OFX/CLO resistant Mycobacterium tuberculosis clinical isolate Praha 4 assessed as bacterial growth inhibition incubated for 14 days by two-fold serial dilution method; details: Praha 4, 336 h, time 14 day
[4] = tested on: Mycobacterium tuberculosis; test: Antimycobacterial activity against STM/INH/EMB/RIF/OFX/CLO-resistant Mycobacterium tuberculosis clinical isolate Praha 4 assessed as bacterial growth inhibition incubated for 21 days by two-fold serial dilution method; details: Praha 4, 504 h, time 21 day
[5] = tested on: Mycobacterium tuberculosis; test: Antimycobacterial activity against STM/INH/EMB/RIF/OFX/GEN/AMK-resistant Mycobacterium tuberculosis clinical isolate Praha 131 assessed as bacterial growth inhibition incubated for 14 days by two-fold serial dilution method; details: Praha 131, 336 h, time 14 day
[6] = tested on: Mycobacterium tuberculosis; test: Antimycobacterial activity against TM/INH/EMB/RIF/OFX/GEN/AMK-resistant Mycobacterium tuberculosis clinical isolate Praha 131 assessed as bacterial growth inhibition incubated for 21 days by two-fold serial dilution method; details: Praha 131, 504 h, time 21 day
[7] = tested on: Mycobacterium tuberculosis; test: Antimycobacterial activity against STM/INH/EMB/RIF resistant Mycobacterium tuberculosis clinical isolate 234/2005 assessed as bacterial growth inhibition incubated for 14 days by two-fold serial dilution method; details: 234/2005, 336 h, time 14 day
[8] = tested on: Mycobacterium tuberculosis; test: Antimycobacterial activity against STM/INH/EMB/RIF resistant Mycobacterium tuberculosis clinical isolate 234/2005 strain assessed as bacterial growth inhibition incubated for 21 days by two-fold serial dilution method; details: 234/2005, 504 h, time 21 day
[9] = tested on: Mycobacterium tuberculosis; test: Antimycobacterial activity against STM/INH/RIF resistant Mycobacterium tuberculosis clinical isolate 9449/2007 strain assessed as bacterial growth inhibition incubated for 14 days by two-fold serial dilution method; details: 9449/2007, 336 h, time 14 day
[10] = tested on: Mycobacterium tuberculosis; test: Antimycobacterial activity against STM/INH/RIF resistant Mycobacterium tuberculosis clinical isolate 9449/2007 strain assessed as bacterial growth inhibition incubated for 21 days by two-fold serial dilution method; details: 9449/2007, 504 h, time 21 day
[11] = tested on: Mycobacterium tuberculosis; test: Antimycobacterial activity against STM/INH/EMB/RIF/OFX resistant Mycobacterium tuberculosis clinical isolate 7357/1998 strain assessed as bacterial growth inhibition incubated for 14 days by two-fold serial dilution method; details: 7357/1998, 336 h, time 14 day
[12] = tested on: Mycobacterium tuberculosis; test: Antimycobacterial activity against STM/INH/EMB/RIF/OFX resistant Mycobacterium tuberculosis clinical isolate 7357/1998 strain assessed as bacterial growth inhibition incubated for 21 days by two-fold serial dilution method; details: 7357/1998, 504 h, time 21 day
[13] = tested on: Mycobacterium tuberculosis; test: Antimycobacterial activity against STM/INH/EMB/RIF/OFX/CLO resistant Mycobacterium tuberculosis clinical isolate 8666/2010 strain assessed as bacterial growth inhibition incubated for 14 days by two-fold serial dilution method; details: 8666/2010, 336 h, time 14 day
[14] = tested on: Mycobacterium tuberculosis; test: Antimycobacterial activity against STM/INH/EMB/RIF/OFX/CLO resistant Mycobacterium tuberculosis clinical isolate 8666/2010 strain assessed as bacterial growth inhibition incubated for 21 days by two-fold serial dilution method; details: 8666/2010, 504 h, time 21 day

| Structure (SMILES) | MIC [1] | MIC [2] | MIC [3] | MIC [4] | MIC [5] | MIC [6] | MIC [7] | MIC [8] | MIC [9] | MIC [10] | MIC [11] | MIC [12] | MIC [13] | MIC [14] |
| --- | --- | --- | --- | --- | --- | --- | --- | --- | --- | --- | --- | --- | --- | --- |
| CNC(C)[C@@H]1CC[C@@H](N)[C@@H](O[C@H]2[C@H](O)[C@@H](O[C@H]3OC[C@](C)(O)[C@H](NC)[C@H]3O)[C@H](N)C[C@@H]2N)O1.CN[C@@H]1[C@@H](O)[C@@H](O[C@@H]2[C@@H](O)[C@H](O[C@H]3O[C@H](C(C)N)CC[C@H]3N)[C@@H](N)C[C@H]2N)OC[C@]1(C)O.CN[C@@H]1[C@@H](O)[C@@H](O[C@@H]2[C@@H](O)[C@H](O[C@H]3O[C@H](CN)CC[C@H]3N)[C@@H](N)C[C@H]2N)OC[C@]1(C)O (stereo partly drawn) | 1 µM | 1 µM | 0.5 µM | 0.5 µM | > 17 µM | > 17 µM | 0.26 µM | 0.26 µM | 1 µM | 1 µM | 1 µM | 1 µM | 4 µM | 4 µM |
| C/C(=N\NC(=O)c1ccncc1)C(=O)Nc1ccc(Oc2ccccc2)cc1 | 16 µM (≈ 5.99 µg/mL) | 16 µM (≈ 5.99 µg/mL) | 16 µM (≈ 5.99 µg/mL) | 16 µM (≈ 5.99 µg/mL) | 16 µM (≈ 5.99 µg/mL) | 16 µM (≈ 5.99 µg/mL) | 8 µM (≈ 3 µg/mL) | 16 µM (≈ 5.99 µg/mL) | 16 µM (≈ 5.99 µg/mL) | 16 µM (≈ 5.99 µg/mL) | 16 µM (≈ 5.99 µg/mL) | 16 µM (≈ 5.99 µg/mL) | 16 µM (≈ 5.99 µg/mL) | 16 µM (≈ 5.99 µg/mL) |
| C/C(=N\NC(=O)c1ccncc1)C(=O)Nc1ccc(S(=O)(=O)Nc2cc(C)on2)cc1 | – | – | – | – | ≥ 250 µM | ≥ 250 µM | – | – | ≥ 250 µM | ≥ 250 µM | – | – | ≥ 250 µM | ≥ 250 µM |
| C/C(=N\NC(=O)c1ccncc1)C(=O)Nc1ccc(-c2ccccc2)cc1 | 32 µM (≈ 11.5 µg/mL) | 64 µM (≈ 22.9 µg/mL) | 64 µM (≈ 22.9 µg/mL) | 64 µM (≈ 22.9 µg/mL) | 32 µM (≈ 11.5 µg/mL) | 64 µM (≈ 22.9 µg/mL) | 64 µM (≈ 22.9 µg/mL) | 125 µM (≈ 44.8 µg/mL) | 64 µM (≈ 22.9 µg/mL) | 64 µM (≈ 22.9 µg/mL) | 64 µM (≈ 22.9 µg/mL) | 125 µM (≈ 44.8 µg/mL) | 64 µM (≈ 22.9 µg/mL) | 64 µM (≈ 22.9 µg/mL) |
| C/C(=N\NC(=O)c1ccncc1)C(=O)Nc1ccc(Sc2ccc([N+](=O)[O-])cc2)cc1 | – | – | – | – | ≥ 250 µM | ≥ 250 µM | – | – | ≥ 250 µM | ≥ 250 µM | – | – | ≥ 250 µM | ≥ 250 µM |
| CC1COc2c(N3CCN(C)CC3)c(F)cc3c(=O)c(C(=O)O)cn1c23 (stereo not drawn) [OFLOXACIN] | 1.4 µM (≈ 0.506 µg/mL) | 1.4 µM (≈ 0.506 µg/mL) | > 22 µM | > 22 µM | 22 µM (≈ 7.95 µg/mL) | > 17 µM | 0.7 µM (≈ 0.253 µg/mL) | 0.7 µM (≈ 0.253 µg/mL) | 2.8 µM (≈ 1.01 µg/mL) | 2.8 µM (≈ 1.01 µg/mL) | 11 µM (≈ 3.98 µg/mL) | 11 µM (≈ 3.98 µg/mL) | 11 µM (≈ 3.98 µg/mL) | 11 µM (≈ 3.98 µg/mL) |
